The test system of the data set is mouse liver microsomes, metabolic half-life. Kind of data set: qHTS Assay for Inhibitors of Bacillus subtilis Sfp phosphopantetheinyl transferase (PPTase): Mouse Liver Microsome Stability (Half Time). The text has this:
PPTases are responsible for the activation of a variety of pathogen-associated virulence factors. Among these compounds are toxins such as mycolactone from Mycobacterium ulcerans, siderophores such as vibriobactin from Vibrio cholerae or mycobactin from Mycobacterium tuberculosis, as well as the mycolic acids which form the waxy cell wall of Mycobacteria. The biosyntheses of these natural products are considered attractive targets for drug design. After a large qHTS and several follow-up assays, a small molecule was identified and this in vitro ADME assay serves to better characterize its properties.
This bioassay provides profiling data on mouse liver microsome stability.
NIH Chemical Genomics Center [NCGC]
NIH Molecular Libraries Probe Centers Network [MLPCN]
Assay Submitter (PI): Michale Burkart, University of California, San Diego
1uM of compound in incubated in mouse liver microsome; the reference compound is ketanserin. Compounds are incubated at 37 degrees C for different time periods: 0, 5, 15, 30, 45, and 60 minutes. Samples are analyzed with LC-MS/MS.
For orientation: qHTS replaces the single test concentration by a dilution series.

Turning to `COc1ccnc(NC(=S)N2CCN(c3ncc(C(F)(F)F)cc3Cl)CC2)c1`, the microsomal half-life was 49.5 min.
